In patent US10792289B2 (Horizon Orphan LLC, priority 2009, dated 2020):
Read-outs that look alike come from different tables or passages of the source.

Test system: P. aeruginosa isolates
Experiment: Phase 2 study: MIC of P. aeruginosa isolates to levofloxacin
Type: cell-based
Settings: Pseudomonas aeruginosa
Experimental: Efficacy was evaluated by microbiologic assessment of sputum samples, time to need for anti-pseudomonal antimicrobials, the Cystic Fibrosis Questionaire-Revised (CFQ-R), and pulmonary function tests. […] Pair-wise comparisons between all the treatment arms were conducted as secondary analyses.

With C[C@H]1COc2c(N3CCN(C)CC3)c(F)cc3c(=O)c(C(=O)O)cn1c23 [Levofloxacin, levofloxacin] the MIC50 (336 h, MITT, combined 240 mg QD and BID, Day 14, read-out: MIC50 (all organisms)) was 4 µg/mL, the MIC90 (336 h, MITT, combined 240 mg QD and BID, Day 14, read-out: MIC90 (all organisms)) was 16 µg/mL and the MIC50 (336 h, Table 14, EE, 120 mg QD, Day 14, read-out: MIC50 (all organisms)) was 8 µg/mL. The MIC90 (336 h, Table 14, EE, 120 mg QD, Day 14, read-out: MIC90 (all organisms)) was 32 µg/mL, the MIC50 (336 h, Table 14, EE, 240 mg BID, Day 14, read-out: MIC50 (all organisms)) was 4 µg/mL and the MIC90 (336 h, Table 14, EE, 240 mg BID, Day 14, read-out: MIC90 (all organisms)) was 32 µg/mL. For the same compound, the MIC50 (336 h, Table 14, EE, 240 mg QD, Day 14, read-out: MIC50 (all organisms)) was 8 µg/mL, the MIC90 (336 h, Table 14, EE, 240 mg QD, Day 14, read-out: MIC90 (all organisms)) was 16 µg/mL and the MIC (336 h, read-out: Highest MIC to levofloxacin, mean (SD), MITT, 120 mg QD, Day 14) was 20.3 µg/mL. The MIC (336 h, read-out: Highest MIC to levofloxacin, mean (SD), MITT, 240 mg BID, Day 14) was 14.9 µg/mL, the MIC (336 h, read-out: Highest MIC to levofloxacin, mean (SD), MITT, 240 mg QD, Day 14) was 9.28 µg/mL and the MIC (336 h, read-out: Highest MIC to levofloxacin, mean (SD), MITT, combined 240 mg QD and BID, Day 14) was 12.1 µg/mL. The MIC (336 h, read-out: MIC to levofloxacin (all organisms), mean (SD), EE, 120 mg QD, Day 14) was 13 µg/mL, the MIC (336 h, read-out: MIC to levofloxacin (all organisms), mean (SD), EE, 240 mg BID, Day 14) was 8.4 µg/mL and the MIC (336 h, read-out: MIC to levofloxacin (all organisms), mean (SD), EE, 240 mg QD, Day 14) was 6.6 µg/mL. The MIC (336 h, read-out: MIC to levofloxacin (all organisms), mean (SD), EE, combined 240 mg QD and BID, Day 14) was 7.5 µg/mL, the MIC (336 h, read-out: MIC to levofloxacin (all organisms), mean (SD), MITT, 120 mg QD, Day 14) was 12.9 µg/mL and the MIC (336 h, read-out: MIC to levofloxacin (all organisms), mean (SD), MITT, 240 mg BID, Day 14) was 8.2 µg/mL. The MIC (336 h, read-out: MIC to levofloxacin (all organisms), mean (SD), MITT, 240 mg QD, Day 14) was 6.5 µg/mL, the MIC (336 h, read-out: MIC to levofloxacin (all organisms), mean (SD), MITT, combined 240 mg QD and BID, Day 14) was 7.3 µg/mL and the MIC (336 h, read-out: MIC to levofloxacin (all organisms), mean (SD), Table 14, EE, 120 mg QD, Day 14) was 21.2 µg/mL. It also gave an MIC (336 h, read-out: MIC to levofloxacin (all organisms), mean (SD), Table 14, EE, 240 mg BID, Day 14) of 15.2 µg/mL, an MIC (336 h, read-out: MIC to levofloxacin (all organisms), mean (SD), Table 14, EE, 240 mg QD, Day 14) of 9.56 µg/mL and an MIC (336 h, read-out: MIC to levofloxacin (all organisms), mean (SD), Table 14, EE, combined 240 mg QD and BID, Day 14) of 12.3 µg/mL. It also gave an MIC50 (672 h, EE and MITT, 120 mg QD, Day 28, read-out: MIC50 for P. aeruginosa isolates) of 8 µg/mL, an MIC90 (672 h, EE and MITT, 120 mg QD, Day 28, read-out: MIC90 for P. aeruginosa isolates) of 32 µg/mL and an MIC50 (672 h, EE and MITT, 240 mg BID, Day 28, read-out: MIC50 for P. aeruginosa isolates) of 8 µg/mL. For the same compound, the MIC90 (672 h, EE and MITT, 240 mg BID, Day 28, read-out: MIC90 for P. aeruginosa isolates) was 32 µg/mL, the MIC50 (672 h, EE and MITT, 240 mg QD, Day 28, read-out: MIC50 for P. aeruginosa isolates) was 8 µg/mL and the MIC90 (672 h, EE and MITT, 240 mg QD, Day 28, read-out: MIC90 for P. aeruginosa isolates) was 16 µg/mL. For the same compound, the MIC50 (672 h, EE, 120 mg QD, Day 28, read-out: MIC50 (all organisms)) was 4 µg/mL, the MIC90 (672 h, EE, 120 mg QD, Day 28, read-out: MIC90 (all organisms)) was 16 µg/mL and the MIC50 (672 h, EE, 240 mg BID, Day 28, read-out: MIC50 (all organisms)) was 4 µg/mL. The MIC90 (672 h, EE, 240 mg BID, Day 28, read-out: MIC90 (all organisms)) was 32 µg/mL, the MIC50 (672 h, EE, 240 mg QD, Day 28, read-out: MIC50 (all organisms)) was 4 µg/mL and the MIC90 (672 h, EE, 240 mg QD, Day 28, read-out: MIC90 (all organisms)) was 16 µg/mL. It also gave an MIC50 (672 h, EE, combined 240 mg QD and BID, Day 28, read-out: MIC50 (all organisms)) of 4 µg/mL, an MIC90 (672 h, EE, combined 240 mg QD and BID, Day 28, read-out: MIC90 (all organisms)) of 16 µg/mL and an MIC50 (672 h, MITT, 120 mg QD, Day 28, read-out: Highest MIC, MIC50) of 8 µg/mL. For the same compound, the MIC90 (672 h, MITT, 120 mg QD, Day 28, read-out: Highest MIC, MIC90) was 32 µg/mL, the MIC50 (672 h, MITT, 120 mg QD, Day 28, read-out: MIC50 (all organisms)) was 4 µg/mL and the MIC90 (672 h, MITT, 120 mg QD, Day 28, read-out: MIC90 (all organisms)) was 16 µg/mL. It also gave an MIC50 (672 h, MITT, 240 mg BID, Day 28, read-out: Highest MIC, MIC50) of 8 µg/mL, an MIC90 (672 h, MITT, 240 mg BID, Day 28, read-out: Highest MIC, MIC90) of 16 µg/mL and an MIC50 (672 h, MITT, 240 mg BID, Day 28, read-out: MIC50 (all organisms)) of 4 µg/mL. It also gave an MIC90 (672 h, MITT, 240 mg BID, Day 28, read-out: MIC90 (all organisms)) of 32 µg/mL, an MIC50 (672 h, MITT, 240 mg QD, Day 28, read-out: Highest MIC, MIC50) of 8 µg/mL and an MIC90 (672 h, MITT, 240 mg QD, Day 28, read-out: Highest MIC, MIC90) of 16 µg/mL. It also gave an MIC50 (672 h, MITT, 240 mg QD, Day 28, read-out: MIC50 (all organisms)) of 4 µg/mL, an MIC90 (672 h, MITT, 240 mg QD, Day 28, read-out: MIC90 (all organisms)) of 16 µg/mL and an MIC50 (672 h, MITT, combined 240 mg QD and BID, Day 28, read-out: Highest MIC, MIC50) of 8 µg/mL.
